In patent US6545000B1, “[1,2,4]triazolo[1,5-c]pyrimidine derivatives” (Kyowa Hakko Kogyo Co., Ltd., priority 1998, dated 2003):

Columns and labels:
[1] = system: ddY male mice; assay: Forced swimming method (measurement of immobility time); type: in vivo, mouse; conditions: oral, one hour before the test; 4 minutes (240 seconds) measurement; 10 mice
Description: Ten animals per group of ddY male mice (21 to 26 g in body weight, Japan SLC) were used as the test animal. During the preliminary feeding period, they were allowed to have feed and water freely in an animal room of a room temperature of 23±1° C. and a humidity of 55±5%. Animals showing abnormal reactions in terms of spontaneous activity, myotonia, eyesight or the like were excluded beforehand. The test compound was suspended in a 0.3% Tween 80 solution and orally administered one hour before the test. In the negative control group, 10 mL/kg of a 0.3% Tween 80 solution alone was orally administered. Measurement of immobility time was carried out in accordance with the method of Porsolt (Arch. int Pharmacodyn., 229: 327-336 (1977)). That is, a cylindrical transparent acrylic water tank (10 cm in diameter and 25 cm in height) was filled with 9 cm in depth of water having a temperature of 23±1° C., and mice were forced to swim for 6 minutes. When mice are put into water, they immediately start to swim trying to escape from the tank, but the motion gradually decreases 1 to 2 minutes thereafter. […] In order to reduce effects of daily rhythm, the test was carried out by using 5 of the 10 animals per group in the morning, and the remaining 5 animals in the afternoon. […]

[2] = system: CGS 21680-induced catalepsy; assay: Activity on CGS 21680-induced catalepsy; type: in vivo, mouse; conditions: 10 mg/kg oral; for inhibition in vivo at 10 mg/kg: Mus musculus, 1 h, percentage reduction of total score vs control group, read-out: Remission ratio (%); for Total score: total catalepsy score of 10 mice (maximum 50 points), 1 hour after administration
Description: This test was carried out using 10 animals per group of male ddY mice of 5 week age (22 to 25 g in body weight, Japan SLC). […] One hour after the administration of the test compound, only forelimbs or only hindlimbs of each animal were laid on a vertically arranged stand made of acryl, having a size of 4.5 cm in height and 1.0 cm in width, to measure catalepsy symptoms. All of the test compounds were administered orally in a dose of 10 mg/kg.
(§1) The effect was judged by total catalepsy scores of 10 animals in one group (the maximum score is 50 points). When total score was 40 points or less, the activity of the compounds was judged positive. The number of animals showing remission of catalepsy was expressed by the number of cases in which the catalepsy score was 4 points or less in 10 cases. The catalepsy remission ratio was expressed as the percentage reduction of the total score in the test compound-administered group to the total score in the control group.

[3] = system: reserpine-induced catalepsy; assay: Activity on reserpine-induced catalepsy; type: in vivo, mouse; conditions: oral; for Remission ratio (%): percentage reduction of total score vs control group; for Total score: total catalepsy score of 10 mice (maximum 50 points), reserpine 5 mg/kg s.c., 1 hour after administration
Description: This test was carried out using 10 animals per group of male ddY mice of 5 week age (22 to 24 g in body weight, Japan SLC). […] Reserpine (5 mg/kg: apoplon, Daiichi Pharmaceutical Co., Ltd.; diluted with distilled water) was subcutaneously administered, and catalepsy-inducing activity was observed from 18 hours after the administration. […] Each test compound was suspended in distilled water for injection containing 0.5% MC (manufactured by Otsuka Pharmaceutical Co., Ltd.) The suspension containing each of the test compounds or a solution containing no test compound (distilled water for injection containing 0.5% MC (manufactured by Otsuka Pharmaceutical Co., Ltd.); control) was orally administered (0.1 mL per 10 g mouse body weight) and, one hour after the administration of test compound, only forelimbs or only hindlimbs of each animal were laid on a stand having a size of 4.5 cm in height and 1.0 cm in width, to measure catalepsy symptoms.
as §1, with “maximum” for “maximum score”, “When the” for “When”, “test compound” for “compounds”

[4] = target: T1, Rat A2A receptor (Rattus norvegicus, UniProt P30543); assay: Adenosine A2A receptor binding test (3H-CGS 21680 binding); conditions: rat corpus striatum
T1 construct: from tissue; host or cells: rat corpus striatum membrane preparation
Description: The final precipitate was suspended in 50 mmol/L Tris-HCl buffer (containing 10 mmol/L magnesium chloride and 0.02 unit/mg tissue of adenosine deaminase (manufactured by Sigma Co.)) by adding the buffer to the final precipitate so as to give a tissue concentration of 5 mg (wet weight)/mL.
Inhibition ratio (%)={1−(amount of the binding in the presence of the test compound−amount of the non-specific binding)/(amount of the total binding−amount of the non-specific binding)}×100

[5] = system: haloperidol-induced catalepsy; assay: Activity on haloperidol-induced catalepsy; type: in vivo, mouse; conditions: 10 mg/kg oral; for Number of animals showing remission: catalepsy score 4 points or less, out of 10 mice; for Remission ratio (%): percentage reduction of total score vs control group; for Total score: total catalepsy score of 10 mice (maximum 50 points), haloperidol 1.0 mg/kg i.p.
Description: Parkinson's disease is a disease based on the degeneration and cell death of the nigrostriatal dopaminergic neuron. When haloperidol (dopamine D2 antagonist) is administered, catalepsy is induced by the block of postsynaptic D2 receptor. This haloperidol-induced catalepsy is known as a classic model in which symptoms of Parkinson's disease are produced by drug administration (European Journal of Pharmacology, 182: 327 (1990) and U.S. Pat. No. 3,991,207).
This test was carried out using 10 animals per group of male ddY mice of 5 week age (22 to 24 g in body weight, Japan SLC). Haloperidol (manufactured by Janssen) was suspended in 0.5% MC and administered intraperitoneally into mice at a dose of 1.0 mg/kg. Each test compound was suspended in distilled water for injection containing 0.5% MC (manufactured by Otsuka Pharmaceutical Co., Ltd.) (10 mg/kg). Also, as a control drug, 100 mg/kg of L-DOPA and 25 mg/kg of benserazide were used as a solution by dissolving them into distilled water for injection containing 0.5% MC (manufactured by Otsuka Pharmaceutical Co., Ltd.) One hour after the intraperitoneal injection of haloperidol, the suspension containing each of the test compounds or the solution containing the control drug was orally administered (0.1 mL per 10 g mouse body weight) and, one hour after the administration of the test compound or the control drug, only forelimbs or only hindlimbs of each animal were laid on a stand having a size of 4.5 cm in height and 1.0 cm in width, to measure catalepsy symptoms. The catalepsy score was evaluated by the judging criteria shown in the above-described Table 3.
as §1, with “points). When the total score” for “points). When total score”, “of the test compounds was” for “of the compounds was”

[6] = system: MPTP-treated common marmoset; assay: Parkinson's disease model (common marmoset treated with MPTP); type: in vivo; conditions: motor disability score (0-17 points), 4 animals

T1 sequence (P30543 whole entry): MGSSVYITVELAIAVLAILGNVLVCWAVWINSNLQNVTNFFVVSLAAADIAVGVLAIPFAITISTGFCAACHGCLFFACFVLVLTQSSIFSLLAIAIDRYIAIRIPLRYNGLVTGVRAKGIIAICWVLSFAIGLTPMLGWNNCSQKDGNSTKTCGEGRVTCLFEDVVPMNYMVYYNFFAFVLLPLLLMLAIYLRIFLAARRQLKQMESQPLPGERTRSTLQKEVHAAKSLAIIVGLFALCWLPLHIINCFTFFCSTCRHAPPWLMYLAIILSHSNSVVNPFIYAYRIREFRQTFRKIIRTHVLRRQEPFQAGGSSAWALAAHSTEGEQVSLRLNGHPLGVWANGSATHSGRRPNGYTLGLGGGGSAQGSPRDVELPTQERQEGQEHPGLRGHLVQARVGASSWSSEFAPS

Row | Rat A2A receptor inhibition ratio (%) ([4]; 10^−6 mol/L test compound) | Rat A2A receptor inhibition ratio (%) ([4]; 10^−7 mol/L test compound) | Compound | Immobility time (second) [1] | inhibition in vivo at 10 mg/kg [2] [%] | Total score [2] | Remission ratio (%) [3] [%] | Total score [3] | Number of animals showing remission [5] | Remission ratio (%) [5] [%] | Total score [5] | Average score at maximum improvement after administration ([6]; after administration) | Average score before administration ([6]; before administration of the test compound)
1 | 90 | 65 | Cc1cc(CN2CCN(c3cc4nc(-c5ccco5)nn4c(N)n3)CC2)no1 [Compound 21, 5-Amino-2-(2-furyl)-7-(4-(5-methylisoxazol-3-ylmethyl)piperazinyl)[1,2,4]triazolo[1,5-c]pyrimidine] | 7.6 ± 3.2 (p < 0.01) second | 100 | 0 | 66 | 17 | 10 | 100 | 0 |  | 
2 | 81 | 42 | CC(C)(O)CN1CCN(c2cc3nc(-c4ccco4)nn3c(N)n2)CC1 [Compound 1, 5-Amino-2-(2-furyl)-7-(4-(2-hydroxy-2-methylpropyl)piperazinyl)[1,2,4]triazolo[1,5-c]pyrimidine] |  | 100 | 0 | 72 | 14 | 10 | 100 | 0 | 4.75 ± 0.48 (p < 0.0256) | 12.75 ± 0.25
